The record followed here is patent US5004780A, “Cyclic monoperoxyketal” (priority 1988, dated 1991).

Type in all cases: physicochemical
A short description of data set [1]: Thermal decomposition product of peroxyketal in cumene (gas chromatography). On the procedure:
Each of the thermal decomposition reaction solutions of Example 7 and Comparative example 1 was analyzed by means of a gas chromatography to measure the thermal decomposition products. The number of mols of the decomposition products per 1 mol of each of the decomposed peroxyketals was calculated. The obtained results are shown in the following Table 3 as Example 16 and Comparative example 7.

Data set [2] in a line: Thermal decomposition of peroxyketal in cumene at 100° C. The settings on record: 0.05 mol/l; for Half-life period: 50000 µM. On the procedure: (§1) A 0.05 mol/l cumene solution of each of the cyclic monoperoxyketals of the present invention produced in Examples 1-6 and the cyclic bisperoxyketals produced in the same manner as described in Examples 1-6 was prepared. A given amount of each sample solution was sampled into a glass ampule, and the sample solution was deaerated by a freezing method, and then the ampule was sealed under vacuum. Then, the ampules were put in a thermostat kept at 100° C., and taken out from the thermostate every predetermined times, and the concentration of peroxyketal was measured by a gas chromatography or liquid chromatography. The decomposition rate constant and half-life period of a sample peroxyketal were calculated from the disappearing rate of the peroxyketal. The obtained results are shown in the following Table 1 as Examples 6-12 and Comparative examples 1-6.

Data set [3] can be described thus: Amounts of ketone and alcohol formed by the thermal decomposition of peroxyketal in cumene. The settings on record: 100° C. On the procedure: The amount of ketone and that of alcohol contained in each of the thermal decomposition solutions obtained in Examples 6-12 and Comparative examples 1-6 were measured by means of a gas chromatography. The numbers of mols of ketone and alcohol per 1 mol of each of decomposed cyclic monoperoxyketal or cyclic bisperoxyketal were measured. The obtained results are shown in the following Table 4 as Examples 17-22 and Comparative examples 8-13.

Data set [4] is described as follows: Solubility of peroxyketal in unsaturated polyester resin. Details: key: .circle.: Complete dissolving; Δ: Fairly long time was required in dissolving; X: Incomplete dissolving (white turbid).
Data set [5] can be described thus: Thermal decomposition of 1-methoxy-1-(1,1-dimethylethylperoxy)cyclohexane at 100° C. in n-hexane, n-dodecane or n-hexadecane. Conditions: for Half-life period: 50000 µM. On the procedure:
as §1
Thermal decomposition of 1-methoxy-1-(1,1-dimethylethylperoxy)cyclohexane at 100° C. was carried out in the same manner as described in Example 7, except that n-hexane, n-dodecane or n-hexadecane was used as a solvent in place of cumene, and the thermal decomposition rate constant and half-life period of the cyclic monoperoxyketal in these solvents were measured.

The mark [6] stands for this setting: n-hexadecane, viscosity 0.900 cp.

The structures appear in SMILES notation.

In the case of `CC(C)(C)OOC1(OOC(C)(C)C)CCCCC1` [Comparative example 1, 1,1-bis(1,1-dimethylethylperoxy)cyclohexane, reference compound], the “Thermal decomposition product: 1,1-dimethylperoxyhexanoate” value in data set [1] (100° C., 1,1-dimethylperoxyhexanoate) is 0.35 Number of mols per 1 mol of de. For the same compound, in data set [1] (100° C.), the “Thermal decomposition product: biscumyl” value is 0.69 Number of mols per 1 mol of de and the “Thermal decomposition product: t-butanol” value is reported as 1.06 Number of mols per 1 mol of de. Besides, in data set [2], the Decomposition rate constant is 5.06 ×10^5 (1/sec) and the Half-life period worked out at 3.81 h. Besides, in data set [3], the “Ratio of ketone to alcohol” value was determined as 0.01, the “Thermal decomposition product: Alcohol” value was 1.37 mols per 1 mol of decomposed p and the “Thermal decomposition product: Ketone” value is given as 0.02 mols per 1 mol of decomposed p. In addition, the Solubility result in data set [4] is on record as “.circle”.

As for `COC1(OOC(C)(C)C)CCCCC1` [Example 7, 1-methoxy-1-(1,1-dimethylethylperoxy)cyclohexane], the “Thermal decomposition product: acetone” value in data set [1] (100° C., acetone) was 0.10 Number of mols per 1 mol of de. For the same compound, in data set [1] (100° C.), the “Thermal decomposition product: biscumyl” value is recorded as 0.50 Number of mols per 1 mol of de and the “Thermal decomposition product: t-butanol” value is 0.47 Number of mols per 1 mol of de. Besides, the “Thermal decomposition product: methyl hexanoate” value in data set [1] (100° C., methyl hexanoate) is 0.59 Number of mols per 1 mol of de. For the same compound, in data set [2], the Decomposition rate constant is listed as 6.79 ×10^5 (1/sec) and the Half-life period was 2.84 h. Moreover, in data set [3], the “Ratio of ketone to alcohol” value is reported as 0.21, the “Thermal decomposition product: Alcohol” value was 0.47 mols per 1 mol of decomposed p and the “Thermal decomposition product: Ketone” value was 0.10 mols per 1 mol of decomposed p. In data set [5] (n-dodecane, viscosity 0.520 cp), the Decomposition rate constant is recorded as 4.71 ×10^5 (1/sec) and the Half-life period came out at 4.09 h. In data set [5] (setting [6]), the Decomposition rate constant is reported as 4.23 ×10^5 (1/sec) and the Half-life period worked out at 4.55 h. Besides, in data set [5] (n-hexane, viscosity 0.168 cp), the Decomposition rate constant is reported as 5.13 ×10^5 (1/sec) and the Half-life period turned out to be 3.75 h. Moreover, the Solubility entry in data set [4] is given as “.circle”.

With `CCC(C)(C)OOC1(OC)CCCCC1` [Example 8, 1-methoxy-1-(1,1-dimethylpropylperoxy)cyclohexane], in data set [2], the Decomposition rate constant is on record as 10.58 ×10^5 (1/sec) and the Half-life period was determined as 1.82 h. Also, in data set [3], the “Ratio of ketone to alcohol” value is on record as 5.71, the “Thermal decomposition product: Alcohol” value was 0.14 mols per 1 mol of decomposed p and the “Thermal decomposition product: Ketone” value is listed as 0.80 mols per 1 mol of decomposed p. In addition, the Solubility entry in data set [4] is listed as “.circle”.

On to `CCCC(C)(C)OOC1(OC)CCCCC1` [Example 9, 1-methoxy-1-(1,1-dimethylbutylperoxy)cyclohexane], for which, in data set [2], the Decomposition rate constant is reported as 11.20 ×10^5 (1/sec) and the Half-life period was 1.72 h. Besides, in data set [3], the “Ratio of ketone to alcohol” value amounted to 2.26, the “Thermal decomposition product: Alcohol” value is 0.31 mols per 1 mol of decomposed p and the “Thermal decomposition product: Ketone” value is reported as 0.70 mols per 1 mol of decomposed p. For the same compound, in data set [4], the Solubility entry is “.circle”.

In the case of `COC1(OOC(C)(C)CC(C)(C)C)CCCCC1` [Example 10, 1-methoxy-1-(1,1,3,3-tetramethylbutylperoxy)cyclohexane], in data set [2], the Decomposition rate constant was 28.40 ×10^5 (1/sec) and the Half-life period turned out to be 0.68 h. In data set [3], the “Ratio of ketone to alcohol” value is given as 79.0, the “Thermal decomposition product: Alcohol” value was 0.01 mols per 1 mol of decomposed p and the “Thermal decomposition product: Ketone” value is 0.79 mols per 1 mol of decomposed p. Further, the Solubility result in data set [4] is recorded as “.circle”.

Take `COC1(OOC(C)(C)c2ccccc2)CCCCC1` [Example 11, 1-methoxy-1-(1-methyl-1-phenylethylperoxy)cyclohexane]: in data set [2], the Decomposition rate constant was 11.32 ×10^5 (1/sec) and the Half-life period stood at 1.70 h. Besides, in data set [3], the “Ratio of ketone to alcohol” value was found to be 0.42, the “Thermal decomposition product: Alcohol” value was 0.60 mols per 1 mol of decomposed p and the “Thermal decomposition product: Ketone (Acetophenone is formed)” value is listed as 0.25 mols per 1 mol of decomposed p. In data set [4], the Solubility result is given as “.circle”.

With `CCCC(C)(C)OOC1(OC)CC(C)CC(C)(C)C1` (centres unmarked) [Example 12, 1-methoxy-1-(1,1-dimethylbutylperoxy)-3,3,5-trimethylcyclohexane], in data set [2], the Decomposition rate constant is reported as 11.25 ×10^5 (1/sec) and the Half-life period was 1.71 h. Moreover, in data set [3], the “Ratio of ketone to alcohol” value amounted to 2.27, the “Thermal decomposition product: Alcohol” value was 0.30 mols per 1 mol of decomposed p and the “Thermal decomposition product: Ketone” value is 0.68 mols per 1 mol of decomposed p. In addition, the Solubility result in data set [4] is given as “.circle”.

`CCC(C)(C)OOC1(OOC(C)(C)CC)CCCCC1` [compound 2, 1,1-bis(1,1-dimethylpropylperoxy)cyclohexane, reference compound]: in data set [2], the Decomposition rate constant is on record as 7.32 ×10^5 (1/sec) and the Half-life period turned out to be 2.63 h. In data set [3], the “Ratio of ketone to alcohol” value was determined as 2.81, the “Thermal decomposition product: Alcohol” value is 0.26 mols per 1 mol of decomposed p and the “Thermal decomposition product: Ketone” value is reported as 0.73 mols per 1 mol of decomposed p. Moreover, the Solubility result in data set [4] is “Δ”.

Consider `CCCC(C)(C)OOC1(OOC(C)(C)CCC)CCCCC1` [compound 3, 1,1-bis(1,1-dimethylbutylperoxy)cyclohexane, reference compound], for which, in data set [2], the Decomposition rate constant was 7.48 ×10^5 (1/sec) and the Half-life period was 2.57 h. Further, in data set [3], the “Ratio of ketone to alcohol” value worked out at 1.28, the “Thermal decomposition product: Alcohol” value is 0.65 mols per 1 mol of decomposed p and the “Thermal decomposition product: Ketone” value is 0.83 mols per 1 mol of decomposed p. Also, in data set [4], the Solubility entry is given as “Δ”.

For `CC(C)(C)CC(C)(C)OOC1(OOC(C)(C)CC(C)(C)C)CCCCC1` [compound 4, 1,1-bis(1,1,3,3-tetramethylbutylperoxy)cyclohexane, reference compound], in data set [2], the Decomposition rate constant is recorded as 19.83 ×10^5 (1/sec) and the Half-life period came out at 0.97 h. In data set [3], the “Ratio of ketone to alcohol” value was determined as 1.21, the “Thermal decomposition product: Alcohol” value is listed as 0.24 mols per 1 mol of decomposed p and the “Thermal decomposition product: Ketone” value is given as 0.29 mols per 1 mol of decomposed p. The Solubility result in data set [4] is listed as “X”.

`CC(C)(OOC1(OOC(C)(C)c2ccccc2)CCCCC1)c1ccccc1` [compound 5, 1,1-bis(1-methyl-1-phenylethylperoxy)cyclohexane, reference compound]: in data set [2], the Decomposition rate constant is given as 8.24 ×10^5 (1/sec) and the Half-life period was determined as 2.34 h. In data set [3], the “Ratio of ketone to alcohol” value is listed as 0.41, the “Thermal decomposition product: Alcohol” value is recorded as 1.00 mols per 1 mol of decomposed p and the “Thermal decomposition product: Ketone (Acetophenone is formed)” value is recorded as 0.41 mols per 1 mol of decomposed p. Besides, the Solubility result in data set [4] is recorded as “.circle”.

As for `CCCC(C)(C)OOC1(OOC(C)(C)CCC)CC(C)CC(C)(C)C1` (centres unmarked) [compound 6, 1,1-bis(1,1-dimethylbutylperoxy)-3,3,5-trimethylcyclohexane, reference compound], in data set [2], the Decomposition rate constant was 7.50 ×10^5 (1/sec) and the Half-life period amounted to 2.57 h. Moreover, in data set [3], the “Ratio of ketone to alcohol” value came to 1.25, the “Thermal decomposition product: Alcohol” value was 0.64 mols per 1 mol of decomposed p and the “Thermal decomposition product: Ketone” value was 0.80 mols per 1 mol of decomposed p. Also, in data set [4], the Solubility result is given as “Δ”.

With `CC(C)(C)OOC(=O)c1ccccc1` [compound 28, 1,1-dimethylethyl peroxybenzoate], in data set [4], the Solubility entry was “.circle”.
